Molecular target: T1, StSUT4 (Solanum tuberosum, UniProt Q9FV92)
T1 construct: gene SUT4; StSUT4 cDNA in pDR196, expressed in yeast cells
T1 sequence (Q9FV92 1-500): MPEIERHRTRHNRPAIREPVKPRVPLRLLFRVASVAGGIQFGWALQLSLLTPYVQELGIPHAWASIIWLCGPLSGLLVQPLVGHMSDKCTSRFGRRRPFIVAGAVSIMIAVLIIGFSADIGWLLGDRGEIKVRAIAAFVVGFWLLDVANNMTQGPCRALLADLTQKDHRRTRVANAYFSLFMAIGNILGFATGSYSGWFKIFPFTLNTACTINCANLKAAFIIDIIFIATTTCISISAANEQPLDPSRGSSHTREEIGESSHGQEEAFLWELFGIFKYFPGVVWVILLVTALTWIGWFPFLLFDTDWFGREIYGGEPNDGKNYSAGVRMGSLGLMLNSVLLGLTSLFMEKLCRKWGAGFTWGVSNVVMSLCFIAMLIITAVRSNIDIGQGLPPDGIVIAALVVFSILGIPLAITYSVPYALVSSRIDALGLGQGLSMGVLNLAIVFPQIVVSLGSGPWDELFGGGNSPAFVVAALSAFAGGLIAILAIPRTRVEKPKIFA
Assay: competition with esculin uptake in yeast, fluorescence
Type: cell-based
Details: 8 mM esculin, pH 5.0, 20 mM unlabelled sucrose

For `OC[C@H]1O[C@@](CO)(O[C@H]2O[C@H](CO)[C@@H](O)[C@H](O)[C@H]2O)[C@@H](O)[C@@H]1O` [sucrose], the “% inhibition at 20 mM” value was “~ almost 50%”.
